# Assays:
# Experiment in all cases: combination Emax (second highest fraction inhibited in the dose matrix, 72 h); higher = more inhibition; extreme values may be limits of the assay
# [1] = test system: HCC-78 (Lung Adenocarcinoma)
# Summary of the method: (§1)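 Cell lines grown in DMEM/F12 or RPMI with 10% FBS were plated in 1536-well plates and held 24 hours at 37°C, 5% CO2 before 72 hours of exposure to two-drug dose matrices, with DMSO typically at 0.2%. CellTiter-Glo 2.0 luminescence gave viability, which was converted to inhibition. Vehicle wells were set to 0 and blank wells to 1. Combination Emax is the second-highest inhibition in the matrix, and Bliss excess is the observed combination effect minus the expected EA + EB − EA·EB, where EA and EB are the single-agent effects.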
# T98G (Glioblastoma) = test system: T98G (Glioblastoma)
# Summary of the method: as §1
# 42-MG-BA (Glioblastoma) = test system: 42-MG-BA (Glioblastoma)
# Summary of the method: as §1
# ES4 (Ewing's Sarcoma) = test system: ES4 (Ewing's Sarcoma)
# Summary of the method: as §1
# [2] = test system: ME-1 (Acute Myeloid Leukemia)
# Summary of the method: as §1
# [3] = test system: TE-15 (Esophageal Squamous Cell Carcinoma)
# Summary of the method: as §1
# [4] = test system: COLO-205 (Colorectal Carcinoma)
# Summary of the method: as §1
# [5] = test system: HCC1806 (Breast Carcinoma)
# Summary of the method: as §1
# [6] = test system: Calu-3 (Lung Adenocarcinoma)
# Summary of the method: as §1
# [7] = test system: TE-9 (Esophageal Squamous Cell Carcinoma)
# Summary of the method: as §1
# [8] = test system: Ramos-2G6-4C10 (Burkitt's Lymphoma)
# Summary of the method: as §1
# [9] = test system: Daoy (Other Solid Carcinomas)
# Summary of the method: as §1
# [10] = test system: TCCSUP (Bladder Carcinoma)
# Summary of the method: as §1
# [11] = test system: DoTc2-4510 (Cervical Carcinoma)
# Summary of the method: as §1
# NB10 (Neuroblastoma) = test system: NB10 (Neuroblastoma)
# Summary of the method: as §1
# [12] = test system: NCI-H2085 (Non-Small Cell Lung Carcinoma)
# Summary of the method: as §1
# [13] = test system: KP-1N (Pancreatic Carcinoma)
# Summary of the method: as §1
# [14] = test system: LU-135 (Small Cell Lung Carcinoma)
# Summary of the method: as §1
# [15] = test system: RC-K8 (B-Cell Non-Hodgkin's Lymphoma)
# Summary of the method: as §1
# [16] = test system: CCRF-CEM (T-Lymphoblastic Leukemia)
# Summary of the method: as §1
SMILES,combination Emax [1],combination Emax (T98G (Glioblastoma)),combination Emax (42-MG-BA (Glioblastoma)),combination Emax (ES4 (Ewing's Sarcoma)),combination Emax [2],combination Emax [3],combination Emax [4],combination Emax [5],combination Emax [6],combination Emax [7],combination Emax [8],combination Emax [9],combination Emax [10],combination Emax [11],combination Emax (NB10 (Neuroblastoma)),combination Emax [12],combination Emax [13],combination Emax [14],combination Emax [15],combination Emax [16]
"CN(C)CCCOc1ccc(-c2ccc3ncc4c(c3c2)n(C2CCOCC2)c(=O)n4C)cn1 [AZD0156] + O=C(c1cc(Cc2n[nH]c(=O)c3ccccc23)ccc1F)N1CCN(C(=O)C2CC2)CC1 [Olaparib] (first compound max 3 µM, partner max 3 µM)",0.448,0.287,0.402,0.658,0.224,0.253,0.365,0.479,0.184,0.353,0.745,0.427,0.279,0.206,0.593,0.224,0.277,0.426,0.318,0.46
"C=CCn1c(=O)c2cnc(Nc3ccc(N4CCN(C)CC4)cc3)nc2n1-c1cccc(C(C)(C)O)n1 [AZD1775] + C1CN(CCC1(C(=O)N[C@@H](CCO)C2=CC=C(C=C2)Cl)N)C3=NC=NC4=C3C=CN4 [Capivasertib] (first compound max 3 µM, partner max 3 µM)",0.626,0.785,0.733,0.521,0.685,0.724,0.832,0.933,0.466,0.816,0.99,0.999,0.787,0.723,0.892,0.631,0.633,0.669,0.652,1
"CN(CCO)CC[C@H](CSc1ccccc1)Nc1ccc(S(=O)(=O)NC(=O)c2ccc(N3CCC([C@@H](O)c4ccccc4-c4ccc(Cl)cc4)CC3)cc2)cc1S(=O)(=O)C(F)(F)F [AZD4320] + C1CN(CCC1(C(=O)N[C@@H](CCO)C2=CC=C(C=C2)Cl)N)C3=NC=NC4=C3C=CN4 [Capivasertib] (first compound max 1 µM, 7x7, partner max 3 µM)",0.31,0.249,0.594,0.564,1,0.141,0.831,0.212,0.124,0.356,0.586,0.249,0.168,0.59,0.108,0.289,0.0744,1,0.552,1
"CN(CCO)CC[C@H](CSc1ccccc1)Nc1ccc(S(=O)(=O)NC(=O)c2ccc(N3CCC([C@@H](O)c4ccccc4-c4ccc(Cl)cc4)CC3)cc2)cc1S(=O)(=O)C(F)(F)F [AZD4320] + C=CCn1c(=O)c2cnc(Nc3ccc(N4CCN(C)CC4)cc3)nc2n1-c1cccc(C(C)(C)O)n1 [AZD1775] (first compound max 1 µM, partner max 1 µM)",0.232,0.892,0.293,1,1,0.615,0.902,0.972,0.182,0.34,1,0.99,0.689,0.884,0.493,0.585,0.398,1,0.934,1
"CN(CCO)CC[C@H](CSc1ccccc1)Nc1ccc(S(=O)(=O)NC(=O)c2ccc(N3CCC([C@@H](O)c4ccccc4-c4ccc(Cl)cc4)CC3)cc2)cc1S(=O)(=O)C(F)(F)F [AZD4320] + CCN(CCO)CCCOc1ccc2c(Nc3cc(CC(=O)Nc4cccc(F)c4)[nH]n3)ncnc2c1 [AZD2811] (first compound max 1 µM, 7x7, partner max 1 µM)",0.2,0.554,0.831,0.631,1,0.141,0.974,0.201,0.168,0.451,0.909,0.715,0.543,0.735,0.408,0.692,0.0993,1,0.917,1
"CN(CCO)CC[C@H](CSc1ccccc1)Nc1ccc(S(=O)(=O)NC(=O)c2ccc(N3CCC([C@@H](O)c4ccccc4-c4ccc(Cl)cc4)CC3)cc2)cc1S(=O)(=O)C(F)(F)F [AZD4320] + CN(C)CCCOc1ccc(-c2ccc3ncc4c(c3c2)n(C2CCOCC2)c(=O)n4C)cn1 [AZD0156] (first compound max 1 µM, 7x7, partner max 1 µM)",0.147,0.126,0.274,0.655,1,0.0786,0.77,0.133,0.117,0.263,0.345,0.156,0.127,0.6,0.215,0.242,0.194,1,0.407,1
"CN(CCO)CC[C@H](CSc1ccccc1)Nc1ccc(S(=O)(=O)NC(=O)c2ccc(N3CCC([C@@H](O)c4ccccc4-c4ccc(Cl)cc4)CC3)cc2)cc1S(=O)(=O)C(F)(F)F [AZD4320] + C[C@@H]1COCCN1C2=NC(=NC(=C2)C3(CC3)[S@](=N)(=O)C)C4=C5C=CNC5=NC=C4 [AZD6738] (first compound max 1 µM, 7x7, partner max 10 µM)",0.637,0.954,0.675,1,1,0.908,0.623,0.972,0.284,0.372,0.946,0.972,0.865,0.912,0.689,0.502,0.269,1,0.956,1
"CN(CCO)CC[C@H](CSc1ccccc1)Nc1ccc(S(=O)(=O)NC(=O)c2ccc(N3CCC([C@@H](O)c4ccccc4-c4ccc(Cl)cc4)CC3)cc2)cc1S(=O)(=O)C(F)(F)F [AZD4320] + C[C@@H](Nc1cc(F)cc(F)c1)c1cc(C(=O)N(C)C)cc2c(=O)cc(N3CCOCC3)oc12 [AZD8186] (first compound max 1 µM, 7x7, partner max 3 µM)",0.528,0.482,0.757,0.849,1,0.551,0.776,0.696,0.242,0.312,0.685,0.837,0.417,0.911,0.78,0.584,0.303,1,0.999,1
"CN(CCO)CC[C@H](CSc1ccccc1)Nc1ccc(S(=O)(=O)NC(=O)c2ccc(N3CCC([C@@H](O)c4ccccc4-c4ccc(Cl)cc4)CC3)cc2)cc1S(=O)(=O)C(F)(F)F [AZD4320] + Cc1cc2ncnn2cc1Nc1ncc2c(n1)n(C1CCOCC1)c(=O)n2C [AZD7648] (first compound max 1 µM, 7x7, partner max 10 µM)",0.175,0.255,0.312,0.619,1,0.0708,0.669,0.0765,0.182,0.246,0.718,0.152,0.268,0.499,0.172,0.177,0.0993,1,0.596,1
"CN(CCO)CC[C@H](CSc1ccccc1)Nc1ccc(S(=O)(=O)NC(=O)c2ccc(N3CCC([C@@H](O)c4ccccc4-c4ccc(Cl)cc4)CC3)cc2)cc1S(=O)(=O)C(F)(F)F [AZD4320] + Cn1cnc2c(F)c(Nc3ccc(Br)cc3Cl)c(C(=O)NOCCO)cc21 [Selumetinib] (first compound max 1 µM, 7x7, partner max 3 µM)",0.305,0.277,0.694,0.823,1,0.43,1,0.795,0.245,0.438,0.472,0.817,0.405,0.906,0.887,0.367,0.196,1,0.993,0.993
"COc1nnc2ccc(N3CCC(c4ccc(OCCN5CCN(C)C(=O)[C@H]5C)cc4)CC3)nn12 [AZD5153] + C=CCn1c(=O)c2cnc(Nc3ccc(N4CCN(C)CC4)cc3)nc2n1-c1cccc(C(C)(C)O)n1 [AZD1775] (first compound max 1 µM, partner max 1 µM)",0.421,0.717,0.688,0.758,0.572,0.756,0.79,0.9,0.632,0.275,1,0.908,0.578,0.473,0.749,0.505,0.655,1,0.787,1

# Source: the supplement of paper PMC11061612
